Measurements from publication PMC2820545, “Mechanistic Characterization and Molecular Modeling of Hepatitis B Virus Polymerase Resistance to Entecavir” (PLoS ONE, 2010).
Like-named read-outs stand apart in the source and are kept apart here.

What was measured:
[1] = tested on: HBV clones with ETVr signature substitutions in a LVDr background; assay: HBV cell culture susceptibility, ETVr clones as a group; assay type: cell-based, hepatitis B virus
Text: The levels of ETVr observed in cell culture and in vitro enzymatic assays of representative clones with ETVr substitutions are shown in Table 1. […] High levels of ETVr were observed when HBV clones contained ETVr signature substitutions in a LVDr background both in vitro (>400-fold) and in culture (>200-fold), respectively (Table 1). A full analysis of the different ETVr substitutions in culture has been reported for engineered and clinical ETVr HBV isolates.
(§1) HepG2 cell culture susceptibility assays were performed in cells transfected with HBV expression plasmids and cultured in the presence of a titration of antiviral compounds, as described in detail elsewhere. The levels of replicated, released HBV virions was measured at day five through immunocapture of detergent released nucleocapsids with anti-HBV core Ab and quantification of encapsidated HBV DNA [5]. Data were plotted as percent inhibition and EC50 values calculated as the drug concentration where 50% inhibition of extracellular HBV occurred.

LVDr L180M + M204V HBV [2] = assay: HBV cell culture susceptibility (HBV-transfected HepG2 cells); assay type: cell-based; conditions: Hepatitis B virus
Experimental: (§2) HepG2 human hepatoma cells (American Type Culture Collection) were maintained as described. The laboratory clone of HBV was the genotype D ayw serotype clone kindly provided by Dr. Steven Goff in the plasmid pCMV-HBV [41]. Plasmids expressing HBV RT with resistance substitutions were prepared using QuikChange® site-directed mutagenesis (Stratagene, LaJolla, CA).
as §1

LVDr + T184G + S202I HBV = assay: as above; assay type: cell-based; conditions: Hepatitis B virus, single patient isolate, read-out: ETV EC50, Average ± SD (Range)
Experimental: as §2, §1

LVDr + T184L HBV = assay: as above; assay type: cell-based; conditions: Hepatitis B virus, averaged from 2 isolates, read-out: ETV EC50, Average ± SD (Range)
Experimental: as §2, §1

LVDr + M250V HBV = assay: as above; assay type: cell-based; conditions: Hepatitis B virus, averaged from 2 isolates, read-out: ETV EC50, Average ± SD (Range)
Experimental: as §2, §1

LVDr + S202G HBV = assay: as above; assay type: cell-based; conditions: Hepatitis B virus, averaged from 2 isolates, read-out: ETV EC50, Average ± SD (Range)
Experimental: as §2, §1

Wildtype HBV = assay: as above; assay type: cell-based; conditions: Hepatitis B virus
Experimental: as §2, §1

[3] = tested on: LVDr HBV with M250V or M250L; assay: HBV cell culture strand-specific EC50 determination; assay type: cell-based, hepatitis B virus; conditions: strand-specific riboprobes
Text: (§3) ETV inhibits HBV polymerase synthesis of DNA in vitro during both RNA-directed first (minus) strand synthesis as well as DNA-directed second (plus) strand synthesis. To determine if ETVr was influenced by the template for DNA synthesis, cell culture EC50 determinations were made using strand-specific riboprobes to hybridize to the synthesized HBV DNA, in parallel with the typical double-stranded DNA probe. In this way an ETV EC50 for each strand of DNA synthesis during the HBV cell culture was determined. […] The minus strand EC50 was similar to the EC50 obtained using the double-stranded DNA probe. These observations are consistent with M250 changes in the primer-grip region of HBV RT influencing ETVr at least in part through the template for DNA synthesis. An independent observation supported this hypothesis; resistance was seen using nucleocapsids prepared in our typical manner (Materials & Methods), isolated from cells grown in PFA to inhibit minus strand synthesis, enhancing the in vitro minus-strand synthesis activity of the preparations. […]
(§4) Figure 5 Analysis of ETVr through strand-specific DNA synthesis in culture. […] The levels of HBV DNA synthesized in the presence of ETV was determined by HBV-specific probe hybridization to HBV nucleocapsid DNA from the cultures. […]

[4] = tested on: wildtype, LVDr substituted and LVDr + T184 or S202 substituted HBV; assay: as above; assay type: cell-based, hepatitis B virus; conditions: strand-specific riboprobes, minus vs plus strand synthesis
Text: as §3, §4

[5] = tested on: wildtype or ETVr HBV polymerase; assay: Pyrophosphorolysis removal of incorporated ETV from HBV DNA; assay type: biochemical, hepatitis B virus; conditions: wildtype or ETVr enzymes; data not shown
Text: The inability of ETV to be proofread by HIV RT has been reported by Tchesnokov et al..

LVDr L180M + M204V HBV [6] = tested on: LVDr L180M + M204V HBV; design: method as in PMID 17267485, PMID 18362040; conditions: cited from earlier work

Structure (SMILES): C=C1[C@H](CO)[C@@H](O)C[C@@H]1n1cnc2c(=O)[nH]c(N)nc21 [ETV, Entecavir]
- level of ETVr in culture [1]: > 200 fold
- EC50 (LVDr L180M + M204V HBV [2]; Cell culture, LVDr L180M + M204V, single isolate, read-out: ETV EC50, Average ± SD (Range)): 30.4 ± 21.6 nM
- EC50 (LVDr L180M + M204V HBV [2]; panel of 15 LVDr isolates, read-out: average ETV EC50): 31.1 nM
- EC50 (LVDr + T184G + S202I HBV): > 4000 nM
- EC50 (LVDr + T184L HBV): 738 ± 119 nM
- EC50 (LVDr + M250V HBV): 3080 nM
- EC50 (LVDr + S202G HBV): 1210 nM
- EC50 (Wildtype HBV; Cell culture, Wildtype HBV, single isolate, read-out: ETV EC50, Average ± SD (Range)): 3 ± 1.5 nM
- EC50 (Wildtype HBV; panel of 76 wildtype isolates, read-out: average ETV EC50): 3.4 nM
- strand-specific ETV EC50, first (minus) strand versus second (plus) strand [3]: increased relative to that for the second (plus) strand
- strand-specific ETV EC50, both strands of HBV DNA compared [4]: nearly equivalent levels of susceptibility
- removal of ETV incorporated into HBV DNA using pyrophosphorolysis [5]: unable to demonstrate removal
- cross-resistance to ETV in culture (LVDr L180M + M204V HBV [6]): approximately 8 fold
